Reference: patent USRE38117E1, “Trioxane dimer compound having antiproliferative and antitumor activities” (Hauser, Inc., priority 1995, dated 2003)

Assays:
Format in all cases: cell-based
SNB-19 = experiment: NCI 60 cell line screen (SRB), CNS Cancer; settings: SNB-19 (CNS Cancer)
HCT-15 = experiment: NCI 60 cell line screen (SRB), Colon Cancer; settings: HCT-15 (Colon Cancer)
A498 = experiment: NCI 60 cell line screen (SRB), Renal Cancer
OVCAR-3 = experiment: NCI 60 cell line screen (SRB), Ovarian Cancer; settings: OVCAR-3 (Ovarian Cancer)
MCF7 = experiment: NCI 60 cell line screen (SRB), Breast Cancer
SF-539 = experiment: NCI 60 cell line screen (SRB), CNS Cancer; settings: SF-539 (CNS Cancer)
NCI-H322M = experiment: NCI 60 cell line screen (SRB), Non-Small Cell Lung Cancer
CCRF-CEM = experiment: NCI 60 cell line screen (SRB), Leukemia
SK-MEL-2 = experiment: NCI 60 cell line screen (SRB), Melanoma; settings: SK-MEL-2 (Melanoma)
NCI-H460 = experiment: NCI 60 cell line screen (SRB), Non-Small Cell Lung Cancer
HCC-2998 = experiment: NCI 60 cell line screen (SRB), Colon Cancer; settings: HCC-2998 (Colon Cancer)
SW-620 = experiment: NCI 60 cell line screen (SRB), Colon Cancer; settings: SW-620 (Colon Cancer)
CAKI-1 = experiment: NCI 60 cell line screen (SRB), Renal Cancer; settings: CAKI-1 (Renal Cancer)
K-562 = experiment: NCI 60 cell line screen (SRB), Leukemia; settings: K-562 (Leukemia)
M14 = experiment: NCI 60 cell line screen (SRB), Melanoma
UACC-62 = experiment: NCI 60 cell line screen (SRB), Melanoma; settings: UACC-62 (Melanoma)
HOP-62 = experiment: NCI 60 cell line screen (SRB), Non-Small Cell Lung Cancer; settings: HOP-62 (Non-Small Cell Lung Cancer)
HT29 = experiment: NCI 60 cell line screen (SRB), Colon Cancer
OVCAR-8 = experiment: NCI 60 cell line screen (SRB), Ovarian Cancer; settings: OVCAR-8 (Ovarian Cancer)
IGROVI = experiment: NCI 60 cell line screen (SRB), Ovarian Cancer
MDA-N = experiment: NCI 60 cell line screen (SRB), Breast Cancer
MCF7/ADR-RES = experiment: NCI 60 cell line screen (SRB), Breast Cancer
OVCAR-4 = experiment: NCI 60 cell line screen (SRB), Ovarian Cancer; settings: OVCAR-4 (Ovarian Cancer)
786-0 = experiment: NCI 60 cell line screen (SRB), Renal Cancer; settings: 786-0 (Renal Cancer)
MALME-3M = experiment: NCI 60 cell line screen (SRB), Melanoma; settings: MALME-3M (Melanoma)

Question: With `CC(=O)O[C@H]1C(=O)[C@@]2(C)[C@H]([C@H](OC(=O)c3ccccc3)[C@]3(O)C[C@H](OC(=O)[C@H](O)[C@@H](NC(=O)c4ccccc4)c4ccccc4)C(C)=C1C3(C)C)[C@]1(OC(C)=O)CO[C@@H]1C[C@@H]2O` [Paclitaxel, paclitaxel, reference compound] as the molecule, how does the Log10GI50 (SNB-19) read?
Answer: −8.98 M

Question: And the Log10LC50 (SNB-19)?
Answer: >−4.00 M

Question: And the Log10TGI (SNB-19)?
Answer: >−4.00 M

Question: What about the Log10GI50 (HCT-15) of the same molecule?
Answer: −6.37 M

Question: What about the Log10LC50 (HCT-15) of the same molecule?
Answer: >−4.00 M

Question: What about the Log10TGI (HCT-15) of the same molecule?
Answer: >−4.00 M

Question: What about the Log10GI50 (A498) of the same molecule?
Answer: −7.14 M

Question: What about the Log10LC50 (A498) of the same molecule?
Answer: −4.13 M

Question: And the Log10GI50 (OVCAR-3)?
Answer: −10.40 M

Question: And the Log10LC50 (OVCAR-3)?
Answer: >−4.00 M

Question: And the Log10TGI (OVCAR-3)?
Answer: −4.55 M

Question: And the Log10GI50 (MCF7)?
Answer: −11.69 M

Question: And the Log10LC50 (MCF7)?
Answer: >−4.00 M

Question: And the Log10GI50 (SF-539)?
Answer: −11.09 M

Question: What about the Log10LC50 (SF-539) of the same molecule?
Answer: >−4.00 M

Question: What about the Log10GI50 (NCI-H322M) of the same molecule?
Answer: −10.12 M

Question: And the Log10LC50 (NCI-H322M)?
Answer: >−4.00 M

Question: What about the Log10TGI (NCI-H322M) of the same molecule?
Answer: −4.46 M

Question: And the Log10GI50 (CCRF-CEM)?
Answer: −11.61 M

Question: And the Log10LC50 (CCRF-CEM)?
Answer: >−4.00 M

Question: And the Log10TGI (CCRF-CEM)?
Answer: >−4.00 M

Question: What about the Log10GI50 (SK-MEL-2) of the same molecule?
Answer: −9.53 M

Question: What about the Log10LC50 (SK-MEL-2) of the same molecule?
Answer: >−4.00 M

Question: And the Log10GI50 (NCI-H460)?
Answer: −12.16 M

Question: And the Log10LC50 (NCI-H460)?
Answer: >−4.00 M

Question: What about the Log10TGI (NCI-H460) of the same molecule?
Answer: −4.92 M

Question: And the Log10GI50 (HCC-2998)?
Answer: −12.34 M

Question: And the Log10LC50 (HCC-2998)?
Answer: −4.26 M

Question: And the Log10TGI (HCC-2998)?
Answer: −4.77 M

Question: What about the Log10GI50 (SW-620) of the same molecule?
Answer: −11.60 M

Question: What about the Log10LC50 (SW-620) of the same molecule?
Answer: >−4.00 M

Question: And the Log10TGI (SW-620)?
Answer: >−4.00 M

Question: And the Log10LC50 (CAKI-1)?
Answer: >−4.00 M

Question: What about the Log10GI50 (K-562) of the same molecule?
Answer: −10.83 M

Question: What about the Log10LC50 (K-562) of the same molecule?
Answer: >−4.00 M

Question: And the Log10TGI (K-562)?
Answer: >−4.00 M

Question: And the Log10GI50 (M14)?
Answer: −11.73 M

Question: And the Log10LC50 (M14)?
Answer: −4.13 M

Question: What about the Log10TGI (M14) of the same molecule?
Answer: −4.62 M

Question: What about the Log10GI50 (UACC-62) of the same molecule?
Answer: −10.46 M

Question: What about the Log10LC50 (UACC-62) of the same molecule?
Answer: −4.19 M

Question: And the Log10TGI (UACC-62)?
Answer: −4.71 M

Question: What about the Log10GI50 (HOP-62) of the same molecule?
Answer: −9.67 M

Question: And the Log10LC50 (HOP-62)?
Answer: −4.10 M

Question: And the Log10TGI (HOP-62)?
Answer: −4.80 M

Question: What about the Log10GI50 (HT29) of the same molecule?
Answer: <−13.00 M

Question: What about the Log10LC50 (HT29) of the same molecule?
Answer: −4.39 M

Question: What about the Log10GI50 (OVCAR-8) of the same molecule?
Answer: −10.75 M

Question: What about the Log10LC50 (OVCAR-8) of the same molecule?
Answer: >−4.00 M

Question: What about the Log10GI50 (IGROVI) of the same molecule?
Answer: −8.61 M

Question: And the Log10LC50 (IGROVI)?
Answer: >−4.00 M

Question: And the Log10TGI (IGROVI)?
Answer: −4.19 M

Question: What about the Log10GI50 (MDA-N) of the same molecule?
Answer: <−13.00 M

Question: And the Log10GI50 (MCF7/ADR-RES)?
Answer: −8.48 M

Question: What about the Log10LC50 (MCF7/ADR-RES) of the same molecule?
Answer: >−4.00 M

Question: What about the Log10TGI (MCF7/ADR-RES) of the same molecule?
Answer: >−4.00 M

Question: What about the Log10GI50 (OVCAR-4) of the same molecule?
Answer: −5.00 M

Question: What about the Log10LC50 (OVCAR-4) of the same molecule?
Answer: >−4.00 M

Question: And the Log10TGI (OVCAR-4)?
Answer: −4.19 M

Question: And the Log10GI50 (786-0)?
Answer: −8.01 M

Question: And the Log10LC50 (786-0)?
Answer: >−4.00 M

Question: What about the Log10TGI (786-0) of the same molecule?
Answer: >−4.00 M

Question: What about the Log10LC50 (MALME-3M) of the same molecule?
Answer: −4.11 M

Question: What about the Log10TGI (MALME-3M) of the same molecule?
Answer: −4.46 M
